Measurements reported in US20230286970A1, “NOVEL OXADIAZOLE-BASED SELECTIVE HDAC6 INHIBITORS” (ITALFARMACO S.P.A., priority 2020, published 2023).

Experiments:
[1] = target: recombinant human HDAC1 (Homo sapiens (Human), UniProt Q13547); test: Enzymatic screening, HDAC1 inhibition (fluorogenic FdL_G substrate); type: biochemical
How it was run: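 Recombinant human HDAC1 inhibition was measured fluorometrically using the FLUOR DE LYS-Green (FdL_G) substrate. Compounds at 8 doses (1% DMSO final) in Tris-HCl pH 8 buffer with NaCl, Tween-20 and glycerol were preincubated in triplicate with enzyme and 1 mg/mL BSA, then given substrate. Developer I plus 2 μM TSA was added, and fluorescence read after 25 minutes in the dark.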

[2] = target: recombinant human HDAC6 (Homo sapiens (Human), UniProt Q9UBN7); test: Enzymatic screening, HDAC6 inhibition (fluorogenic FdL_G substrate); type: biochemical
How it was run: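 Enzyme was preincubated with compound (8 doses, triplicate, 1% DMSO) in 25 mM Tris-HCl pH 8, 130 mM NaCl, 0.05% Tween-20, 10% glycerol, with BSA. A FLUOR DE LYS-Green substrate was then added, and fluorescence was read after developer plus 2 μM TSA.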

Chain of recombinant human HDAC1 (Q13547 whole entry): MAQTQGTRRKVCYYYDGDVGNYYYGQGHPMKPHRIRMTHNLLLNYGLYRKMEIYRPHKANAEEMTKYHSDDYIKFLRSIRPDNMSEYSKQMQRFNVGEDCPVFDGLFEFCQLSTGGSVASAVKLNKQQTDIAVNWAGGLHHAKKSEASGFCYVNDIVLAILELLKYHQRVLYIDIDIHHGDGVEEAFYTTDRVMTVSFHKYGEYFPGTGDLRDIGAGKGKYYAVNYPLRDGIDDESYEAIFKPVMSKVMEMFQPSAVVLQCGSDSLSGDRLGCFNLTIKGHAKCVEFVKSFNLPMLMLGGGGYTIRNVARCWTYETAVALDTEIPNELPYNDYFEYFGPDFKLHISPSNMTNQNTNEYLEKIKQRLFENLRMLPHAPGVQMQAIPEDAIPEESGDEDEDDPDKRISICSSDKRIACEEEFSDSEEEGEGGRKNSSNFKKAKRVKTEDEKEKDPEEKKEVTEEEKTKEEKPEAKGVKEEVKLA
Chain of recombinant human HDAC6 (Q9UBN7 whole entry): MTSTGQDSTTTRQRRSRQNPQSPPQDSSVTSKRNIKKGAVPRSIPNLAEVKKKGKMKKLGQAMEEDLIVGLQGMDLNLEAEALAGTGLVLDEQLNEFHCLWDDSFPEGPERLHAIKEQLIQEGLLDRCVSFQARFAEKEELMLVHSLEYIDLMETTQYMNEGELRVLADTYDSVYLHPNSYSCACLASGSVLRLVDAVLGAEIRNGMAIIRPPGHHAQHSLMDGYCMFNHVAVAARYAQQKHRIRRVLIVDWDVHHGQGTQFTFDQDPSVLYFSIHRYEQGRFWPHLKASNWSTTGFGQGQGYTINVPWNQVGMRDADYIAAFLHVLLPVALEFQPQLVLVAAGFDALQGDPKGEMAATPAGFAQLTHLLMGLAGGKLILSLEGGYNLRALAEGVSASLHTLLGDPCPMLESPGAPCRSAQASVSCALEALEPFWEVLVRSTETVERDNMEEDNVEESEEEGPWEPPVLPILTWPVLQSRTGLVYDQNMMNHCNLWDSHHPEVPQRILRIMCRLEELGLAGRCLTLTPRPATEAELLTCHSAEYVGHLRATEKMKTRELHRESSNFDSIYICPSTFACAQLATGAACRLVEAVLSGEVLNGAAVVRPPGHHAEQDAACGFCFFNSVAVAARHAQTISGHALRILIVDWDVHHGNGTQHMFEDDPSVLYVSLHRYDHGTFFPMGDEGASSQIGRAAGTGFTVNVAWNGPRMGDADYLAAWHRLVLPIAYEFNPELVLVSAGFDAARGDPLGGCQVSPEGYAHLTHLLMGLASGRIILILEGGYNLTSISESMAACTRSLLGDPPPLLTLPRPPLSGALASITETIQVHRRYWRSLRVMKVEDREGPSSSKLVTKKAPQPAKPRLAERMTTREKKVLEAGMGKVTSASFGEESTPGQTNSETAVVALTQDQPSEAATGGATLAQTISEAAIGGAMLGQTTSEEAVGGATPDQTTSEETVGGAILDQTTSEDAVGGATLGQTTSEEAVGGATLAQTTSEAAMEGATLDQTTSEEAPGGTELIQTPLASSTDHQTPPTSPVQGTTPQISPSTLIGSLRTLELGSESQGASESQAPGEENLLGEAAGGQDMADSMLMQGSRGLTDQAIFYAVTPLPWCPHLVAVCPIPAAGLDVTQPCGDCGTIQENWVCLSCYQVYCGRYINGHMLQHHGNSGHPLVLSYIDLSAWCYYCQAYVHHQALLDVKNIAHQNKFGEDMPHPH

**Q.** `Fc1cc(-c2nnc(C(F)F)o2)cc(F)c1Cn1cc(-c2ccc(CN3CC(C(F)(F)F)C3)cc2)nn1` [compound 214, 2-(3,5-difluoro-4-((4-(4-((3-(trifluoromethyl)azetidin-1-yl)methyl)phenyl)-1H-1,2,3-triazol-1-yl)methyl)phenyl)-5-(difluoromethyl)-1,3,4-oxadiazole] was tested. Which IC50 [1] did it give?
**A.** > 200 µM

**Q.** And the IC50 [2]?
**A.** 0.151 µM

**Q.** `Cn1c(=O)[nH]c2cc(-c3nnn(Cc4ccc(-c5nnc(C(F)F)o5)cc4)n3)ccc21` [compound 210, 5-(2-(4-(5-(difluoromethyl)-1,3,4-oxadiazol-2-yl)benzyl)-2H-tetrazol-5-yl)-1-methyl-1,3-dihydro-2H-benzo[d]imidazol-2-one] was tested. Which IC50 [1] did it give?
**A.** > 200 µM

**Q.** What about the IC50 [2] of the same compound?
**A.** 0.138 µM

**Q.** Which IC50 [1] does the source give for `CC(C)(C)OC(=O)N1CCC2(CC1)Nc1ccc(-c3cn(Cc4ccc(-c5nnc(C(F)F)o5)cc4)nn3)cc1NC2=O` [compound 279, tert-butyl 6′-(1-(4-(5-(difluoromethyl)-1,3,4-oxadiazol-2-yl)benzyl)-1H-1,2,3-triazol-4-yl)-3′-oxo-3′,4′-dihydro-1′H-spiro[piperidine-4,2′-quinoxaline]-1-carboxylate] here?
**A.** > 200 µM

**Q.** And the IC50 [2]?
**A.** 0.286 µM

**Q.** With `FC(F)c1nnc(-c2ccc(Cc3nnc(-c4ccccc4)s3)cc2)o1` [Compd. 238, 2-(difluoromethyl)-5-(4-((5-phenyl-1,3,4-thiadiazol-2-yl)methyl)phenyl)-1,3,4-oxadiazole] as the compound, how does the IC50 [1] read?
**A.** > 200 µM

**Q.** What about the IC50 [2] of the same compound?
**A.** 0.211 µM

**Q.** How did the IC50 [1] turn out when `NC(=O)c1cccc(-c2noc(Cc3ccc(-c4nnc(C(F)F)o4)cc3)n2)c1` [Compd. 226, 3-(5-(4-(5-(difluoromethyl)-1,3,4-oxadiazol-2-yl)benzyl)-1,2,4-oxadiazol-3-yl)benzamide] was run?
**A.** > 200 µM

**Q.** And the IC50 [2]?
**A.** 0.169 µM

**Q.** Which results are given for `FC(F)c1nnc(-c2ccc(Cn3nnc(Cc4ccccn4)n3)cc2)o1` [compound 251, 2-(difluoromethyl)-5-(4-((5-(pyridin-2-ylmethyl)-2H-tetrazol-2-yl)methyl)phenyl)-1,3,4-oxadiazole]?
**A.** IC50 [1]: > 200 µM; IC50 [2]: 0.298 µM

**Q.** For `O=C(Nc1cc(-c2nnn(Cc3ccc(-c4nnc(C(F)F)o4)cc3)n2)ccc1O)N1CCOCC1` [compound 25, N-(5-(2-(4-(5-(difluoromethyl)-1,3,4-oxadiazol-2-yl)benzyl)-2H-tetrazol-5-yl)-2-hydroxyphenyl)morpholine-4-carboxamide], which IC50 [1] is on record?
**A.** > 200 µM

**Q.** And the IC50 [2]?
**A.** 0.007 µM

**Q.** How did the IC50 [1] turn out when `CS(=O)(=O)NCC(c1ccc(-c2nnc(C(F)F)o2)cc1)n1cc(-c2ccc(N)nc2)nn1` (stereo not shown) [compound 302, N-[2-[4-(6-aminopyridin-3-yl)triazol-1-yl]-2-[4-[5-(difluoromethyl)-1,3,4-oxadiazol-2-yl]phenyl]ethyl]methanesulfonamide] was run?
**A.** > 1000 µM

**Q.** And the IC50 [2]?
**A.** 0.049 µM

**Q.** How did the IC50 [1] turn out when `Cn1c(N)nc2cc(-c3cn(Cc4ccc(-c5nnc(C(F)F)o5)cn4)cn3)ccc21` [compound 328, 5-[1-[[5-[5-(difluoromethyl)-1,3,4-oxadiazol-2-yl]pyridin-2-yl]methyl]imidazol-4-yl]-1-methylbenzimidazol-2-amine] was run?
**A.** > 1000 µM

**Q.** And the IC50 [2]?
**A.** 0.014 µM

**Q.** Which IC50 [1] does the source give for `CCS(=O)(=O)N1CCN(Cc2ccc(-c3cn(Cc4c(F)cc(-c5nnc(C(F)F)o5)cc4F)nn3)cc2)CC1` [compound 169, 2-(difluoromethyl)-5-(4-((4-(4-((4-(ethylsulfonyl)piperazin-1-yl)methyl)phenyl)-1H-1,2,3-triazol-1-yl)methyl)-3,5-difluorophenyl)-1,3,4-oxadiazole] here?
**A.** > 200 µM

**Q.** And the IC50 [2]?
**A.** 0.081 µM

**Q.** What does the source list for `CNc1ccc2cc(-c3nnn(Cc4ccc(-c5nnc(C(F)F)o5)cc4F)n3)ccc2n1` [compound 401, 6-[2-[[4-[5-(difluoromethyl)-1,3,4-oxadiazol-2-yl]-2-fluorophenyl]methyl]tetrazol-5-yl]-N-methylquinolin-2-amine]?
**A.** IC50 [1]: 1000 µM; IC50 [2]: 0.144 µM

**Q.** For `CNc1ncc2cc(-c3cn(Cc4ccc(-c5nnc(C(F)F)o5)c(F)c4)nn3)ccc2n1` [compound 393, 6-[1-({4-[5-(difluoromethyl)-1,3,4-oxadiazol-2-yl]-3-fluorophenyl}methyl)-1H-1,2,3-triazol-4-yl]-N-methylquinazolin-2-amine], which IC50 [1] is on record?
**A.** 1000 µM

**Q.** What about the IC50 [2] of the same compound?
**A.** 0.497 µM

**Q.** `O=C1NCc2ccc(-c3nnn(Cc4ccc(-c5nnc(C(F)F)o5)cc4F)n3)cc21` [compound 40, 6-(2-(4-(5-(difluoromethyl)-1,3,4-oxadiazol-2-yl)-2-fluorobenzyl)-2H-tetrazol-5-yl)isoindolin-1-one] was tested. Which IC50 [1] did it give?
**A.** > 200 µM

**Q.** What about the IC50 [2] of the same compound?
**A.** 0.019 µM

**Q.** What does the source list for `Nc1nc2cc(-c3cnn(Cc4ccc(-c5nnc(C(F)F)o5)cn4)c3)ccc2[nH]1` [compound 331, 5-[1-[[5-[5-(difluoromethyl)-1,3,4-oxadiazol-2-yl]pyridin-2-yl]methyl]pyrazol-4-yl]-1H-benzimidazol-2-amine]?
**A.** IC50 [1]: > 1000 µM; IC50 [2]: 0.052 µM

**Q.** What does the source list for `Nc1nc2ccc(-c3cn(Cc4ccc(-c5nnc(C(F)F)o5)cc4F)nn3)cc2s1` [compound 339, 6-[1-[[4-[5-(difluoromethyl)-1,3,4-oxadiazol-2-yl]-2-fluorophenyl]methyl]triazol-4-yl]-1,3-benzothiazol-2-amine]?
**A.** IC50 [1]: > 1000 µM; IC50 [2]: 0.024 µM

**Q.** What does the source list for `Nc1cccc(-c2nnn(Cc3ccc(-c4nnc(C(F)F)o4)cc3)n2)c1` [compound 129, 3-[2-[[4-[5-(difluoromethyl)-1,3,4-oxadiazol-2-yl]phenyl]methyl]tetrazol-5-yl]aniline]?
**A.** IC50 [1]: > 200 µM; IC50 [2]: 0.05 µM

**Q.** Which IC50 [1] does the source give for `Fc1cc(Cn2nnc(-c3cccc(-c4nc5c([nH]4)CNCC5)c3)n2)ccc1-c1nnc(C(F)F)o1` [compound 364, 2-(difluoromethyl)-5-[2-fluoro-4-[[5-[3-(4,5,6,7-tetrahydro-3H-imidazo[4,5-c]pyridin-2-yl)phenyl]tetrazol-2-yl]methyl]phenyl]-1,3,4-oxadiazole] here?
**A.** 570 µM

**Q.** And the IC50 [2]?
**A.** 0.037 µM

**Q.** With `FC(F)c1nnc(-c2ccc(Cn3nnc(-c4cccc(-n5cccn5)c4)n3)cc2)o1` [compound 188, 2-(4-((5-(3-(1H-pyrazol-1-yl)phenyl)-2H-tetrazol-2-yl)methyl)phenyl)-5-(difluoromethyl)-1,3,4-oxadiazole] as the compound, how does the IC50 [1] read?
**A.** > 200 µM

**Q.** What about the IC50 [2] of the same compound?
**A.** 0.099 µM

**Q.** Which IC50 [1] does the source give for `O=C(c1ccc(-c2nnn(Cc3ccc(-c4nnc(C(F)F)o4)cc3)n2)cc1)N1CCOCC1` [compound 230, (4-(2-(4-(5-(difluoromethyl)-1,3,4-oxadiazol-2-yl)benzyl)-2H-tetrazol-5-yl)phenyl)(morpholino)methanone] here?
**A.** > 200 µM

**Q.** What about the IC50 [2] of the same compound?
**A.** 0.187 µM

**Q.** Which IC50 [1] does the source give for `CN1CCN(c2ccc(-c3nnn(Cc4ccc(-c5nnc(C(F)F)o5)cc4)n3)cc2)CC1` [compound 213, 2-(difluoromethyl)-5-(4-((5-(4-(4-methylpiperazin-1-yl)phenyl)-2H-tetrazol-2-yl)methyl)phenyl)-1,3,4-oxadiazole] here?
**A.** > 200 µM

**Q.** And the IC50 [2]?
**A.** 0.15 µM

**Q.** For `O=C(Nc1cncc(-c2nnn(Cc3ccc(-c4nnc(C(F)F)o4)cc3)n2)c1)N1CCOCC1` [compound 199, N-(5-(2-(4-(5-(difluoromethyl)-1,3,4-oxadiazol-2-yl)benzyl)-2H-tetrazol-5-yl)pyridin-3-yl)morpholine-4-carboxamide], which IC50 [1] is on record?
**A.** > 200 µM

**Q.** What about the IC50 [2] of the same compound?
**A.** 0.109 µM

**Q.** `CN(Cc1ccncc1)Cc1ccc(-c2cn(Cc3c(F)cc(-c4nnc(C(F)F)o4)cc3F)nn2)cc1` [compound 179, N-(4-(1-(4-(5-(difluoromethyl)-1,3,4-oxadiazol-2-yl)-2,6-difluorobenzyl)-1H-1,2,3-triazol-4-yl)benzyl)-N-methyl-1-(pyridin-4-yl)methanamine] was tested. Which IC50 [1] did it give?
**A.** > 200 µM

**Q.** And the IC50 [2]?
**A.** 0.09 µM

**Q.** Which IC50 [1] does the source give for `CN1CCc2ccc(-c3nnn(Cc4ccc(-c5nnc(C(F)F)o5)cc4)n3)cc2C1=O` [compound 173, 7-(2-(4-(5-(difluoromethyl)-1,3,4-oxadiazol-2-yl)benzyl)-2H-tetrazol-5-yl)-2-methyl-3,4-dihydroisoquinolin-1 (2H)-one] here?
**A.** > 200 µM

**Q.** What about the IC50 [2] of the same compound?
**A.** 0.086 µM

**Q.** For `O=C(c1cccc(-c2nnn(Cc3ccc(-c4nnc(C(F)F)o4)cc3)n2)c1)N1CCOCC1` [compound 120, (3-(2-(4-(5-(difluoromethyl)-1,3,4-oxadiazol-2-yl)benzyl)-2H-tetrazol-5-yl)phenyl)(morpholino)methanone], which IC50 [1] is on record?
**A.** > 200 µM

**Q.** What about the IC50 [2] of the same compound?
**A.** 0.045 µM

**Q.** For `NCc1ccc(-c2nnn(Cc3ccc(-c4nnc(C(F)F)o4)cc3)n2)cc1` [compound 43, (4-(2-(4-(5-(difluoromethyl)-1,3,4-oxadiazol-2-yl)benzyl)-2H-tetrazol-5-yl)phenyl)methanamine], which IC50 [1] is on record?
**A.** 74.9 µM

**Q.** What about the IC50 [2] of the same compound?
**A.** 0.02 µM

**Q.** What does the source list for `O=C1NCc2ccc(-c3cn(Cc4ccc(-c5nnc(C(F)F)o5)cc4)cn3)cc21` [compound 294, 6-(1-(4-(5-(difluoromethyl)-1,3,4-oxadiazol-2-yl)benzyl)-1H-imidazol-4-yl)isoindolin-1-one]?
**A.** IC50 [1]: > 200 µM; IC50 [2]: 0.078 µM

**Q.** What does the source list for `FC(F)c1nnc(-c2ccc(Cn3nnc(-c4ccco4)n3)cc2)o1` [compound 220, 2-(difluoromethyl)-5-(4-((5-(furan-2-yl)-2H-tetrazol-2-yl)methyl)phenyl)-1,3,4-oxadiazole]?
**A.** IC50 [1]: > 200 µM; IC50 [2]: 0.157 µM

**Q.** `Cn1c(N)nc2ccc(-c3cn(Cc4ccc(-c5nnc(C(F)F)o5)cc4)nn3)cc21` [compound 166, 6-(1-(4-(5-(difluoromethyl)-1,3,4-oxadiazol-2-yl)benzyl)-1H-1,2,3-triazol-4-yl)-1-methyl-1H-benzo[d]imidazol-2-amine] was tested. Which IC50 [1] did it give?
**A.** > 200 µM

**Q.** What about the IC50 [2] of the same compound?
**A.** 0.078 µM

**Q.** What does the source list for `Cc1nc(F)ccc1-c1cn(Cc2ccc(-c3nnc(C(F)F)o3)cc2)nn1` [compound 241, 2-(difluoromethyl)-5-(4-((4-(6-fluoro-2-methylpyridin-3-yl)-1H-1,2,3-triazol-1-yl)methyl)phenyl)-1,3,4-oxadiazole]?
**A.** IC50 [1]: > 200 µM; IC50 [2]: 0.216 µM
